Reference: PMC5845004, “Novel (p)ppGpp Binding and Metabolizing Proteins of Escherichia coli” (mBio, 2018)
Values joined by “and” are separate entries in the source; they are usually repeats but may differ in a detail not shown here. Identical values can stand only once. “Also recorded” adds a separate entry of the source. Like-named read-outs stand apart in the source and are kept apart here.

Tests used:
Gpt = Gpt (Escherichia coli, UniProt P0A9M5); experiment: DRaCALA Kd determination, purified Gpt; assay type: binding, E. coli; settings: 2 nM 32P-labeled ligand, read-out: apparent Kd, Gpt
Protocol: (§3) For Kd measurements by DRaCALA, 2-fold serial dilutions from the highest possible concentrations of each purified protein were prepared in binding buffer B, and approximately 2 nM concentrations of α-^32P-labeled ppGpp, pppGpp, GTP, and GDP were added. The mixtures were incubated for 5 min at RT before spotting of 2 µl of the reaction mixtures onto nitrocellulose membranes. The fractions of bound ligand and the apparent Kd values were calculated as previously described ([37]).

YgdH = YgdH (Escherichia coli, UniProt P0ADR8); experiment: DRaCALA binding and Kd determination, purified YgdH; set-up: species or system E. coli; settings: DRaCALA
Protocol: (§4) For Kd measurements by DRaCALA, 2-fold serial dilutions from the highest possible concentrations of each purified protein were prepared in binding buffer B, and approximately 2 nM concentrations of α-^32P-labeled ppGpp, pppGpp, GTP, and GDP were added. The mixtures were incubated for 5 min at RT before spotting of 2 µl of the reaction mixtures onto nitrocellulose membranes. […] For competition assays, purified proteins at the specified concentrations were incubated with 2 nM [α-^32P]ppGpp or [α-^32P]pppGpp in the presence of 100 μM competitor nucleotides in binding buffer B. The reaction mixtures were incubated for 5 min at RT, 2 µl was spotted onto nitrocellulose membranes, and the values corresponding to the bound fractions were determined. EDTA was added at excess concentrations as specified for each case.

RF3 (PrfC) = RF3 (PrfC) (Escherichia coli, UniProt P0A7I4); experiment: DRaCALA Kd determination, purified RF3; assay type: binding, E. coli; settings: 2 nM 32P-labeled ligand, read-out: apparent Kd, RF3 (PrfC)
Protocol: as §3

[1] = target: DerG1 (residues 2 to 184) (Escherichia coli, UniProt P0A6P5); experiment: DRaCALA Kd determination, Der G1 domain; assay type: binding, E. coli; settings: 2 nM 32P-labeled ligand, read-out: apparent Kd, DerG1
Protocol: For Kd measurements by DRaCALA, 2-fold serial dilutions from the highest possible concentrations of each purified protein were prepared in binding buffer B, and approximately 2 nM concentrations of α-^32P-labeled ppGpp, pppGpp, GTP, and GDP were added. The mixtures were incubated for 5 min at RT before spotting of 2 µl of the reaction mixtures onto nitrocellulose membranes. The fractions of bound ligand and the apparent Kd values were calculated as previously described ([37]). For competition assays, purified proteins at the specified concentrations were incubated with 2 nM [α-^32P]ppGpp or [α-^32P]pppGpp in the presence of 100 μM competitor nucleotides in binding buffer B. The reaction mixtures were incubated for 5 min at RT, 2 µl was spotted onto nitrocellulose membranes, and the values corresponding to the bound fractions were determined. EDTA was added at excess concentrations as specified for each case.

TrmE = TrmE (Escherichia coli, UniProt P25522); experiment: DRaCALA Kd determination, purified TrmE; assay type: binding, E. coli; settings: in the presence of magnesium, read-out: apparent Kd, TrmE
Protocol: as §4

Era [2] = target: Era (Escherichia coli, UniProt P06616); experiment: DRaCALA Kd determination, purified Era; assay type: binding, E. coli; settings: 2 nM 32P-labeled ligand, read-out: apparent Kd, Era (converted)
Protocol: as §3

ObgE = ObgE (Escherichia coli, UniProt P42641); experiment: DRaCALA Kd determination, purified ObgE; assay type: binding, E. coli; settings: 2 nM 32P-labeled ligand, read-out: apparent Kd, ObgE (converted)
Protocol: as §3

NudG [3] = target: T1, NudG (Escherichia coli, UniProt P77788); experiment: DRaCALA competition assay, lysate with overproduced NudG; assay type: binding, E. coli; settings: whole-cell lysate, 2 nM hot (p)ppGpp, 100 µM cold competitor
T1 construct: expressed in transfected cells; host or cells: E. coli ASKA collection strain, IPTG-induced, whole-cell lysate
Protocol: Bacterial cells were collected and frozen at −80°C.

MutT = MutT (Escherichia coli, UniProt P08337); experiment: In vitro cleavage assay (TLC), MutT; assay type: biochemical, E. coli; settings: for cleavage by MutT: purified MutT, buffer B with 10 mM MgCl2, TLC
Protocol: (§1) The purified His6-MutT and His6-NudG proteins were tested for their relative levels of cleavage of ppGpp compared to those seen with their native substrates. For this, a 1 μM concentration of each protein and a 10 nM concentration of [α-^32P]ppGpp were used together with 100 μM concentrations of cold competitors [ppGpp, GTP, ATP, 8-oxo-(d)GTP, 2-hydroxyl-(d)ATP] or 50 mM EDTA in buffer B. The samples were incubated at 30°C for 10 min and for 1 h before the reactions were stopped by adding 50 mM EDTA. The cleavage products were resolved by TLC as described above. The purified His6-NadR and His6-TrmE proteins were tested for their cleavage of both GTP and ppGpp. For cleavage of GTP, 10 μM concentrations of His6-MBP, His6-TrmE, and 20 μM His6-NadR proteins were used with 2 nM [α-^32P]GTP and 100 μM cold GTP in buffer B. For cleavage of ppGpp, 10 μM concentrations of His6-TrmE, His6-MBP, and His6-NadR proteins were used with 10 nM [α-^32P]ppGpp in buffer B. Of note, for His6-TrmE, another reaction was also performed in buffer B supplemented with 100 mM KCl. The reactions were performed at RT for 10 min and were stopped by adding 17% formic acid. The cleavage products were resolved by TLC as described above.
(§2) A 20 μM concentration of each of purified proteins MutT, NudG, NadR, TrmE, and MBP (as a negative control) was incubated with 100 μM ppGpp in buffer B (containing 40 mM Tris [pH 7.5], 100 mM NaCl, and 10 mM MgCl2) for 20 min at room temperature. Samples were snap-frozen on dry ice and analyzed with UPLC-MS afterward. All samples and buffers were stored at −80°C, thawed on ice, and kept at 4°C during analysis. For the analysis, a UPLC-quadrupole time of flight (UPLC-qTOF) method (Waters) was used. Analysis conditions were as follows: column, zic-HILIC (Merck Millipore) (150 by 2.1 mm, […], gradient elution, flow rate set to 0.3 ml/min); mobile phase A, 10 mM ammonium acetate (pH 5); mobile phase B, 90% acetonitrile with 10 mM ammonium acetate (pH 5). The gradient was set up as follows: min 0 to 2, 80% B; min 2 to 16, 80% B to 50% B; hold until min 20; injection volume, 4 µl. The detection conditions were as follows: photodiode array detector (PDA), […] (evaluated at 260 nm); MS, ionization; electrospray ionization (ESI+), scan, 200 to 800 m/z with lock mass correction. Analytes were identified by their accurate mass and retention time data for a known standard dissolved in used buffer (for the chemicals of the same nominal masses). These standards were either synthesized and their structures confirmed by nuclear magnetic resonance (NMR) (for ppGp, pGpp, and pGp) or purchased (ppGpp was purchased from Jena Biocsience and GTP from Sigma-Aldrich).

NudG [4] = target: T1, NudG; experiment: In vitro cleavage assay (TLC), NudG; assay type: biochemical, E. coli; settings: purified NudG, buffer B with 10 mM MgCl2, TLC
Protocol: as §1, §2

HprT = target: HprT; set-up: method as in ref 39 (Table S1 ref 4); settings: ref 39 (Table S1 ref 4); read-out: Kd, S. aureus HprT; cited from earlier work
Gmk = target: Gmk; set-up: method as in Table S1 (4); settings: ref Table S1 (4); read-out: Kd, S. aureus Gmk; cited from earlier work
Era [5] = target: Era; set-up: method as in Table S1 (4); settings: ref Table S1 (4); read-out: Kd, S. aureus Era (converted); cited from earlier work
HflX = target: HflX; set-up: method as in Table S1 (4); settings: ref Table S1 (4); read-out: Kd, S. aureus HflX (converted); cited from earlier work
RsgA = target: RsgA; set-up: method as in Table S1 (4); settings: ref Table S1 (4); read-out: Kd, S. aureus RsgA (converted); cited from earlier work
PPX = target: PPX; set-up: method as in ref 35 (Table S1 ref 20); settings: competitive; ref 35 (Table S1 ref 20); read-out: inhibitory constant Ki, PPX; cited from earlier work
[6] = in the presence of EDTA (without Mg2+), read-out: Kd, YgdH + EDTA (converted)
[7] = with 1.5 mM Mg2+, read-out: apparent Kd, YgdH + 1.5 mM Mg2+

YgdH, sequence (P0ADR8 whole entry): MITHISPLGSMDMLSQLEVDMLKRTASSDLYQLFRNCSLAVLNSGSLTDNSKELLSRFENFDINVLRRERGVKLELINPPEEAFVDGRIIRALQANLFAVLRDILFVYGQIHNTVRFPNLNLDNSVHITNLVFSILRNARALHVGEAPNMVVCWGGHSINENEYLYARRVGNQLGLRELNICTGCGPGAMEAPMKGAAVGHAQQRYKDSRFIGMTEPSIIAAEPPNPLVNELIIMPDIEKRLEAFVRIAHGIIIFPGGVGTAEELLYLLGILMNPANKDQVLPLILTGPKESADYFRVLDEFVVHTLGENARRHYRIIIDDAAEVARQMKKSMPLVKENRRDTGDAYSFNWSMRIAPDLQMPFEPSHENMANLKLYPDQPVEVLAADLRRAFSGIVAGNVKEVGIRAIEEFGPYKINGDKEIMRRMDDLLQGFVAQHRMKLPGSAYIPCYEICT
MutT, sequence (P08337 whole entry): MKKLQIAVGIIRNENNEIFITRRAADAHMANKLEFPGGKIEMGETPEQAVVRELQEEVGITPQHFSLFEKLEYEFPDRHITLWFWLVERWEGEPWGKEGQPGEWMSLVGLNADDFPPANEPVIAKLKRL
T1 sequence (P77788 whole entry): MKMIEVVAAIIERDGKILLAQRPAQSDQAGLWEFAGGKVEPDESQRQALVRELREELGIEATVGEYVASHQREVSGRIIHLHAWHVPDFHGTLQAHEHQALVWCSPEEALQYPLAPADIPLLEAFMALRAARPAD
DerG1 (residues 2 to 184), sequence (P0A6P5 2-184): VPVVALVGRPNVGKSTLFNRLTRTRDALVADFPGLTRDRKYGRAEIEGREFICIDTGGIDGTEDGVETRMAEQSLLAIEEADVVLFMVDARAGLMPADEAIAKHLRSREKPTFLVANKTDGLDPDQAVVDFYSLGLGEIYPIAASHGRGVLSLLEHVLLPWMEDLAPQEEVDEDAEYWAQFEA
TrmE, sequence (P25522 whole entry): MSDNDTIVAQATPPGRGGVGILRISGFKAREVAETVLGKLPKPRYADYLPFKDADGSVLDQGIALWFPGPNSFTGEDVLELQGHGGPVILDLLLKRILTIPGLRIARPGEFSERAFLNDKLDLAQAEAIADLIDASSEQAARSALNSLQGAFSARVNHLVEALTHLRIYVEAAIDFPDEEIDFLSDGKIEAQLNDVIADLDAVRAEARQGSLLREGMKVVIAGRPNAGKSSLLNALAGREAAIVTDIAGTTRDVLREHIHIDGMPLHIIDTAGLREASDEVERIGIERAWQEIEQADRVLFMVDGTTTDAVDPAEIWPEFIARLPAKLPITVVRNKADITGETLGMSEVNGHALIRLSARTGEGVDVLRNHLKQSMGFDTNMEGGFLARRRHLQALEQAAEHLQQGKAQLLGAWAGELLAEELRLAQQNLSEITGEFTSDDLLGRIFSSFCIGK
RF3 (PrfC), sequence (P0A7I4 whole entry, the tested form may be a part): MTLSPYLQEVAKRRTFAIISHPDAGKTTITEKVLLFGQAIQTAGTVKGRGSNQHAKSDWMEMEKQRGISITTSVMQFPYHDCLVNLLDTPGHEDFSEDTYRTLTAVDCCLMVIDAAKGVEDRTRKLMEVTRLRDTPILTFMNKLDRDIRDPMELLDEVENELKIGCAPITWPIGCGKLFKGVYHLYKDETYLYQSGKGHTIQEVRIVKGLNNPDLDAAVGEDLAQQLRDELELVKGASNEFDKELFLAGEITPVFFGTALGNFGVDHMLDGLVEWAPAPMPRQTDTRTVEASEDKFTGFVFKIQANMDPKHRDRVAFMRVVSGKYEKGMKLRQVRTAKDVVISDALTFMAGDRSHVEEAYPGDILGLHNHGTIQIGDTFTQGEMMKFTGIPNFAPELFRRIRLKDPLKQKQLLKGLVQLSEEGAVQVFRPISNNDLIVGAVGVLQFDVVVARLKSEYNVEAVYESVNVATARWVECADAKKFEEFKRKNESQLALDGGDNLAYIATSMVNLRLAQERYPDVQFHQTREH
ObgE, sequence (P42641 whole entry): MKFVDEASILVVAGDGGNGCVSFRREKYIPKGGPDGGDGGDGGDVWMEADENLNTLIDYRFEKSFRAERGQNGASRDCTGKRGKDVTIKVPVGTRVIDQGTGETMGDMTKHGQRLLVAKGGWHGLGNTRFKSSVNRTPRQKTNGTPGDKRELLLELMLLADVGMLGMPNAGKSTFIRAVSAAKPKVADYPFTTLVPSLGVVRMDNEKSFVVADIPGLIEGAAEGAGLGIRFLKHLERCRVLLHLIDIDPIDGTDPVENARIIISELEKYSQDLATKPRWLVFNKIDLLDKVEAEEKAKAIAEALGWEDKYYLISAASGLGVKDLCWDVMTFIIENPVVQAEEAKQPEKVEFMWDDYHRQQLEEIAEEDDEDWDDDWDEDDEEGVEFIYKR
Era (Escherichia coli, UniProt P06616), sequence (P06616 whole entry): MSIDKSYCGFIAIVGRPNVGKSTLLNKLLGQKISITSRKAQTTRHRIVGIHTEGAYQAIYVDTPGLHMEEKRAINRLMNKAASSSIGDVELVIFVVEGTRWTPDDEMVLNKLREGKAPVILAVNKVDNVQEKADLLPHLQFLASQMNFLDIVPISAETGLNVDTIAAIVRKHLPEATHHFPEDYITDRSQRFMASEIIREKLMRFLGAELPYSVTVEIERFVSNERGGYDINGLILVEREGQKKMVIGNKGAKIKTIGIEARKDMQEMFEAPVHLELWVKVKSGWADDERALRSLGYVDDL
Gpt, sequence (P0A9M5 whole entry): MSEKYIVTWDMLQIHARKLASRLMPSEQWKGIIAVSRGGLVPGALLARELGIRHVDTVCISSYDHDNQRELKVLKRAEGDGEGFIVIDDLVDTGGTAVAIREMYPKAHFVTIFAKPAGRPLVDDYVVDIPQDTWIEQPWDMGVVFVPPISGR

**Q.** For `Nc1nc2c(ncn2[C@@H]2O[C@H](COP(=O)(O)OP(=O)(O)OP(=O)(O)O)[C@@H](OP(=O)(O)OP(=O)(O)O)[C@H]2O)c(=O)[nH]1` [pppGpp, guanosine pentaphosphate], which Kd (Gpt) is on record?
**A.** 6.7 ± 0.9 µM

**Q.** And the Kd (YgdH; [6])?
**A.** 1.6 µM and 1.59 µM

**Q.** And the Kd (YgdH; [7])?
**A.** 37.2 ± 6.5 µM

**Q.** What about the Kd (RF3 (PrfC)) of the same molecule?
**A.** 15 ± 5 µM

**Q.** What about the Kd [1] of the same molecule?
**A.** 4.7 ± 2.3 µM

**Q.** What about the Kd (TrmE) of the same molecule?
**A.** 2200 ± 900 nM

**Q.** What about the Kd (Era [2]) of the same molecule?
**A.** 21.4 µM

**Q.** And the Kd (ObgE)?
**A.** 6.6 µM

**Q.** And the “competition for NudG-bound (p)ppGpp” value (NudG [3])?
**A.** could outcompete the bound, radiolabeled (p)ppGpp

**Q.** And the “cleavage by MutT” value (MutT)?
**A.** degraded into smaller products

**Q.** And the “cleavage by NudG” value (NudG [4])?
**A.** degraded into smaller products

**Q.** What about the Kd (HprT) of the same molecule?
**A.** 750 nM

**Q.** And the Kd (Gmk)?
**A.** 4.01 µM

**Q.** And the Kd (Era [5])?
**A.** 3850 nM

**Q.** And the Kd (HflX)?
**A.** 13.6 µM

**Q.** What about the Kd (RsgA) of the same molecule?
**A.** 10.3 µM

**Q.** And the Ki (PPX)?
**A.** 10 µM

**Q.** With `Nc1nc2c(ncn2[C@@H]2O[C@H](COP(=O)(O)OP(=O)(O)O)[C@@H](OP(=O)(O)OP(=O)(O)O)[C@H]2O)c(=O)[nH]1` [ppGpp, guanosine tetraphosphate] as the molecule, how does the Kd (Gpt) read?
**A.** 5.2 ± 0.9 µM

**Q.** And the Kd (YgdH; [6])?
**A.** 4 ± 0.5 µM

**Q.** And the Kd (YgdH; [7])?
**A.** 24.4 ± 4.7 µM

**Q.** And the Kd (RF3 (PrfC))?
**A.** 0.82 ± 0.09 µM

**Q.** And the Kd [1]?
**A.** 5.9 ± 2.5 µM

**Q.** What about the Kd (TrmE) of the same molecule?
**A.** 1700 ± 500 nM

**Q.** What about the Kd (Era [2]) of the same molecule?
**A.** 4.3 ± 0.6 µM

**Q.** And the Kd (ObgE)?
**A.** 1.8 ± 0.3 µM

**Q.** And the “competition for NudG-bound (p)ppGpp” value (NudG [3])?
**A.** could outcompete the bound, radiolabeled (p)ppGpp

**Q.** What about the “inhibition of [α-32P]ppGpp cleavage by MutT” value (MutT; 1 µM MutT, 10 nM hot ppGpp, 100 µM competitor, 30°C, up to 1 h) of the same molecule?
**A.** very limited inhibitory effects

**Q.** And the “cleavage by MutT” value (MutT)?
**A.** degraded into smaller products; also recorded: cleaved most ppGpp

**Q.** And the “cleavage by NudG” value (NudG [4])?
**A.** degraded into smaller products; also recorded: relatively weak ppGpp cleavage activity

**Q.** What about the Kd (HprT) of the same molecule?
**A.** 370 nM

**Q.** And the Kd (Gmk)?
**A.** 6.02 µM

**Q.** And the Kd (Era [5])?
**A.** 950 ± 60 nM

**Q.** And the Kd (HflX)?
**A.** 0.87 ± 0.15 µM

**Q.** What about the Kd (RsgA) of the same molecule?
**A.** 1.69 ± 0.13 µM

**Q.** What about the Ki (PPX) of the same molecule?
**A.** 200 µM
